One data set in a line: Caco-2 permeation assay. Type of data set: in vitro ADME. As to conditions: human, pH 7.2, Caco-2 monolayer, 2 μM test compound; for Papp A→B at 2 h, 2 μM: read-out: Papp A-B (Mari); for Papp B→A at 2 h, 2 μM: read-out: Papp B-A (Mari); for efflux ratio at 2 h, 2 μM: read-out: Efflux ratio (Papp B-A/Papp A-B). On the procedure: 5. Caco-2 Permeation Assay:
Caco-2 cells (purchased from DSMZ Braunschweig, Germany) were seeded at a density of 4.5×10^4 cells per well on 24 well insert plates, 0.4 μm pore size, and grown for 15 days in DMEM medium supplemented with 10% fetal bovine serum, 1% GlutaMAX (100×, GIBCO), 100 U/mL penicillin, 100 μg/mL streptomycin (GIBCO) and 1% non essential amino acids (100×). Cells were maintained at 37° C. in a humidified 5% CO2 atmosphere. Medium was changed every 2-3 day. Before running the permeation assay, the culture medium was replaced by a FCS-free hepes-carbonate transport buffer (pH 7.2). For assessment of monolayer integrity the transepithelial electrical resistance (TEER) was measured. Test compounds were predissolved in DMSO and added either to the apical or basolateral compartment in final concentration of 2 μM in transport buffer. Before and after 2 h incubation at 37° C. samples were taken from both compartments. Analysis of compound content was done after precipitation with methanol by LC/MS/MS analysis. Permeability (Papp) was calculated in the apical to basolateral (A→B) and basolateral to apical (B→A) directions. The apparent permeability was calculated using following equation: Papp=(Vr/Po)(1/S)(P2/t) Where Vr is the volume of medium in the receiver chamber, Po is the measured peak area or height of the test drug in the donor chamber at t=o, S the surface area of the monolayer, P2 is the measured peak area of the test drug in the acceptor chamber after 2 h of incubation, and t is the incubation time. The efflux ratio basolateral (B) to apical (A) was calculated by dividing the Papp B-A by the Papp A-B. In addition the compound recovery was calculated.

Data set [1] addresses T1, human PTEFb (CDK9/Cyclin T1) (Homo sapiens, UniProt P50750).
T1 construct: purchased ProQinase, Freiburg, Germany
The experiment in a line: Surface plasmon resonance PTEFb. In kind it is binding. The note with it: SPR; for koff: 25° C., below 5E-5 s^-1 not resolvable, read-out: Dissociation rate constant koff; for Target resident time: 1/koff. The source says:
8. Surface Plasmon Resonance PTEFb
The term “surface plasmon resonance”, as used herein, refers to an optical phenomenon that allows for the analysis of the reversible associations of biological molecules in real time within a biosensor matrix, for example using the Biacore® system (GE Healthcare Biosciences, Uppsala, Sweden). Biacore® uses the optical properties of surface plasmon resonance (SPR) to detect alterations in the refractive index of a buffer, which changes as molecules in solution interact with the target immobilized on the surface. In brief, proteins are covalently bound to the dextran matrix at a known concentration and a ligand for the protein is injected through the dextran matrix. Near infrared light, directed onto the opposite side of the sensor chip surface is reflected and also induces an evanescent wave in the gold film, which in turn, causes an intensity dip in the reflected light at a particular angle known as the resonance angle. If the refractive index of the sensor chip surface is altered (e.g. by compound binding to the bound protein) a shift occurs in the resonance angle. This angle shift can be measured.
The term “KD”, as used herein, is intended to refer to the equilibrium dissociation constant of a particular compound/target protein complex.
The term “koff”, as used herein, is intended to refer to the off-rate, i.e. the dissociation rate constant of a particular compound/target protein complex.
The term “target residence time”, as used herein, is intended to refer to the inverse of the rate of dissociation rate constant (1/koff) of a particular compound/target protein complex.
The ability of the compounds according to the invention to bind human PTEFb may be determined using surface plasmon resonance (SPR). KD values and koff values may be measured using a Biacore® T200 instrument (GE Healthcare, Uppsala, Sweden).
For SPR measurements, recombinant human PTEFb (CDK9/Cyclin T1 recombinant human active protein kinase purchased from ProQinase, Freiburg, Germany) is immobilized using standard amine coupling (Johnsson B et al, Anal Biochem. 1991 Nov. 1; 198(2):268-77). Briefly, carboxymethylated dextran biosensor chips (CM7, GE Healthcare) are activated with N-ethyl-N′-(3-dimethylaminopropyl)-carbodiimide hydrochloride (EDC) and N-hydroxysuccinimide (NHS) according to the supplier's instructions. Human PTEFb is diluted in 1×HBS-EP+(GE Healthcare) into 30 μg/ml and injected on the activated chip surface. Subsequently, a 1:1 solution of 1 M ethanolamine-HCl (GE Healthcare) and 1×HBS-EP is injected to block unreacted groups, resulting in approximately 4000 response units (RU) of immobilized protein. A reference surface is generated by treatment with NHS-EDC and ethanolamine-HCl. Compounds are dissolved in 100% dimethylsulfoxide (DMSO, Sigma-Aldrich, Germany) to a concentration of 10 mM and subsequently diluted in running buffer (1×HBS-EP+pH 7.4 [generated from HBS-EP+Buffer 10× (GE Healthcare): 0.1 M HEPES, 1.5 M NaCl, 30 mM EDTA and 0.5% v/v Surfactant P20], 1% v/v DMSO). For kinetic measurements, four-fold serial dilutions of compound (0.39 nM to 100 nM) are injected over immobilized protein. Binding kinetics is measured at 25° C. with a flow rate of 50 μl/min in running buffer. Compound concentrations are injected for 60 s followed by a dissociation time of 1800 s. The resulting sensorgrams are double-referenced against the reference surface as well as against blank injections.
The double-referenced sensorgrams are fit to a simple reversible Langmuir 1:1 reaction mechanism as implemented in the Biacore® T200 evaluation software 2.0 (GE Healthcare). In cases were full compound dissociation has not occurred at the end of the dissociation phase, the Rmax parameter (response at saturation) is fit as local variable. In all other cases, Rmax is fit as global variable.
For orientation: In SPR one partner is held on a chip, and binding of the other changes the refractive index at the surface.

T1 sequence (P50750 whole entry): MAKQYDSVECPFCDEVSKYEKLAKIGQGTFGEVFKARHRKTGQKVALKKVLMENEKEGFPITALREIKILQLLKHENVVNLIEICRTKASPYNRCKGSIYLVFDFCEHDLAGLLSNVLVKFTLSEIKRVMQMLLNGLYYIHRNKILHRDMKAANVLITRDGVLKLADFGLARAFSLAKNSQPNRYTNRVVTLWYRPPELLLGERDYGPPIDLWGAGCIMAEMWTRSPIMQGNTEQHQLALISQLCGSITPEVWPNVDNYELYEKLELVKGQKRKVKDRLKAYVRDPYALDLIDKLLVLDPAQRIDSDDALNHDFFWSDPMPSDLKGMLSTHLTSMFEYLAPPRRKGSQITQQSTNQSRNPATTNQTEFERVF
T1 sequence (O60563 whole entry partner): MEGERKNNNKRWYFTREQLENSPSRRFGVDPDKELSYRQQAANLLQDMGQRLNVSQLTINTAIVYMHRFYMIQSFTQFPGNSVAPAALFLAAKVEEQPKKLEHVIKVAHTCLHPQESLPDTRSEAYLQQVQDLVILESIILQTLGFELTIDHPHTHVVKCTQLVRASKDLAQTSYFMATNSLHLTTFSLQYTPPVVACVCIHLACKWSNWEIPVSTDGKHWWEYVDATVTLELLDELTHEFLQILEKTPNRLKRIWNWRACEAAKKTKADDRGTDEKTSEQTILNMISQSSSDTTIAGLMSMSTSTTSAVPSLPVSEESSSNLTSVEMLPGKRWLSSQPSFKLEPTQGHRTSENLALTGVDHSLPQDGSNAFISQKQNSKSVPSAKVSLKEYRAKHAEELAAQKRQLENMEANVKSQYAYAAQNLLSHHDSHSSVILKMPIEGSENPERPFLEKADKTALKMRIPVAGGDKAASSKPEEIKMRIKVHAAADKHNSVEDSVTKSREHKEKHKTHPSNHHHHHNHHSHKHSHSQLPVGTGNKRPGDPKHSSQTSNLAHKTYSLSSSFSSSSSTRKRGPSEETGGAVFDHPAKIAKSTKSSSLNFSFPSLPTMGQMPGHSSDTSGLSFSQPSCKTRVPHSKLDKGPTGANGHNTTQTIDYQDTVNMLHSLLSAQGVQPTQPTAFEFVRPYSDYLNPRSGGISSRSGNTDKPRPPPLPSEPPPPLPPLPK

`CS(=N)(=O)Cc1cc2cc(c1)OCCCCOc1cc(F)ccc1-c1nc(ncc1F)N2` (racemic) [Example 1, (rac)-16,20-Difluoro-9-[(S-methylsulfonimidoyl)methyl]-2,3,4,5-tetrahydro-12H-13,17-(azeno)-11,7-(metheno)-1,6,12,14-benzodioxadiazacyclononadecine]: in the data set “Caco-2 permeation assay”, the Papp A→B at 2 h, 2 μM was found to be 13.9 ×10⁻⁶ cm/s; the Papp B→A at 2 h, 2 μM came out at 19.7 ×10⁻⁶ cm/s; the efflux ratio at 2 h, 2 μM came out at 1.4. Further, in data set [1], the koff is less than 5e-05 s⁻¹ and the Target resident time is more than 333 min.

In the case of `CS(=N)(=O)Cc1cc2nc(c1)OCCCOc1cc(F)ccc1-c1cc(ncc1F)N2` (racemic) [Example 5, (rac)-15,19-Difluoro-8-[(S-methylsulfonimidoyl)methyl]-3,4-dihydro-2H,11H-10,6-(azeno)-12,16-(metheno)-1,5,11,13-benzodioxadiazacyclooctadecine], in “Caco-2 permeation assay”, the Papp A→B at 2 h, 2 μM was determined as 4.7 ×10⁻⁶ cm/s; the Papp B→A at 2 h, 2 μM was 4.3 ×10⁻⁶ cm/s; the efflux ratio at 2 h, 2 μM worked out at 0.91. In data set [1], the koff worked out at 9.3e-05 s⁻¹ and the Target resident time was 179.2 min.

Take `CS(=O)(Cc1cc2nc(c1)OCCCOc1cc(F)ccc1-c1cc(ncc1F)N2)=NS(=O)(=O)CCN` (racemic) [Example 23, (rac)-2-amino-N-[{[15,19-difluoro-3,4-dihydro-2H,11H-10,6-(azeno)-12,16-(metheno)-1,5,11,13-benzodioxadiazacyclooctadecin-8-yl]methyl}(methyl)oxido-λ^6-sulfanylidene]ethanesulfonamide]: in “Caco-2 permeation assay”, the apparent permeability from apical to basolateral (Papp A→B) at 2 h, 2 μM amounted to 0.6 ×10⁻⁶ cm/s; the Papp B→A at 2 h, 2 μM came out at 44.2 ×10⁻⁶ cm/s; the efflux ratio at 2 h, 2 μM is 69.7.

On to `CS(=O)(Cc1cc2nc(c1)OCCCOc1cc(F)ccc1-c1cc(ncc1F)N2)=NC(=O)OCCN` (racemic) [Example 25, (rac)-2-aminoethyl [{[15,19-difluoro-3,4-dihydro-2H,11H-10,6-(azeno)-12,16-(metheno)-1,5,11,13-benzodioxadiazacyclooctadecin-8-yl]methyl}(methyl)oxido-λ^6-sulfanylidene]carbamate], for which, in “Caco-2 permeation assay”, the Papp A→B at 2 h, 2 μM was found to be 0.4 ×10⁻⁶ cm/s; the Papp B→A at 2 h, 2 μM is 26.2 ×10⁻⁶ cm/s; the efflux ratio at 2 h, 2 μM is 74.5.

Consider `CS(=O)(=O)Cc1cc2nc(c1)OCCCOc1cc(F)ccc1-c1cc(ncc1F)N2` [Example 8, 15,19-difluoro-8-[(methylsulfonyl)methyl]-3,4-dihydro-2H,11H-10,6-(azeno)-12,16-(metheno)-1,5,11,13-benzodioxadiazacyclooctadecine], for which, in “Caco-2 permeation assay”, the Papp A→B at 2 h, 2 μM worked out at 6.7 ×10⁻⁶ cm/s; the Papp B→A at 2 h, 2 μM is 5.5 ×10⁻⁶ cm/s; the efflux ratio at 2 h, 2 μM was determined as 0.8. Further, in data set [1], the koff was less than 5e-05 s⁻¹ and the Target resident time is more than 333 min.

Regarding `NCCS(=O)(=O)Cc1cc2nc(c1)OCCCOc1cc(F)ccc1-c1cc(ncc1F)N2` [Example 26, 2-({[15,19-difluoro-3,4-dihydro-2H,11H-10,6-(azeno)-12,16-(metheno)-1,5,11,13-benzodioxadiazacyclooctadecin-8-yl]methyl}sulfonyl)ethanamine], in the data set “Caco-2 permeation assay”, the Papp A→B at 2 h, 2 μM was found to be 1.2 ×10⁻⁶ cm/s; the Papp B→A at 2 h, 2 μM was determined as 7.6 ×10⁻⁶ cm/s; the efflux ratio at 2 h, 2 μM was 6.5.

Broadly, the Papp A→B is how fast a substance crosses the layer from the apical side. As usually defined, the Papp B→A is how fast a substance crosses the layer from the basolateral side. What is called koff is the rate constant with which the complex falls apart.

The record behind these values is patent US9963464B2, “Macrocyclic compounds” (Bayer Pharma Aktiengesellschaft, priority 2014, dated 2018).
